Reference: patent US5723496A, “Method for prevention and treatment of harmful effects of intracellular acidosis” (priority 1995, dated 1998)
Where “and” joins values, the source holds several entries; their conditions need not be identical. Equal entries are not always repeated. Entries after “also recorded” stand apart in the source; their conditions may differ. Structures can show the parent of a compound that is named as a salt.

Assays:
gerbil brain = assay: intracellular pH of gerbil brain (31P NMR); format: in vivo; settings: mean and standard deviation; p<0.05 (t-test) vs saline 7.17; sulfate
Experimental: Intracellular pH measurement of gerbil brain was performed non-invasively using ^31 P nuclear magnetic resonance (NMR) in vivo spectroscopy. AGE Omega CSI-7T (useful bore 120 mm, horizontal, 7T) was used.
Gerbils were divided into […] of 7 animals each. Control group received saline. Saline ischemia group received saline. GES group received GES. Gerbils were anesthetized with pentobarbital, 50 mg/kg. Gerbils were held in a padded holder which was placed in the probe chamber containing a one turn round surface coil (5 mm diameter) tunable to the resonance frequency of proton and ^31 P. To avoid signal contamination, the scalp and temporal muscle were retracted. The body temperature was kept at 37° C. using a non-magnetic heating pad. Field homogeneity was maximized by skimming on tissue water proton signals. ^31 P spectra were obtained using a one pulse sequence at 121.67 MHz with a spectral width of 10K and stored into 4K memory blocks (recycle time 2.7 sec). The broad resonance with short T2 on ^31 P spectra was removed by the convolution difference technique. Line broadening of 30 Hz was applied as noise filter.

[1] = system: taurine transport into the brain; settings: sulfate; cited from earlier work
[2] = parameters: species or system gerbil; settings: in vivo
Experimental: Adult male gerbils (ca. 70 g) were divided into three groups of 5 gerbils each. Control group received saline and experimental group received GES. Taurine group served as an additional control. […] The saline group received 0.25 ml of saline injections.
After two weeks, animals were sacrificed by exsanguination under pentobarbital anesthesia. Brains were removed and fixed in liquid nitrogen. The frozen brains were pulverized in a liquid nitrogen cooled mortar and pestle, and mixed with 4 volumes of 0.5N powdered frozen perchloric acid. The powder mixture was centrifuged in liquid nitrogen cooled centrifuge tubes at 16,000 rpm at -4° C. for 30 minutes. The supernatant was removed and titrated to a pH of 9.0-9.5 by the addition of potassium bicarbonate. The solution was stored in an ice bath for 15 minutes and the potassium perchlorate precipitate was removed by centrifugation at 16,000 rpm at -4° C.
Aliquots (0.5 ml) of the extracts obtained above were placed on a dual bed ion exchange column containing 6×0.5 cm Dowex AG1 anion exchange resin (chloride form) layered over 6×0.5 cm Dowex AG50 cation exchange resin (hydrogen form). Water (3 ml) then added to the column. The eluent, guanidinoethyl sulfonate, was free from other naturally occurring guanidino compounds, such as arginine. […] After 18 min., absorbance was read at 545 nm using a Gilford Spectrophotometer to determine brain GES level.

[3] = system: adult mice exposed to anoxia; assay: survival of adult mice exposed to anoxia; format: in vivo, Adult Swiss mice; parameters: mortality, 2.5 minutes of anoxia / protection against 2.5 minutes anoxia: concentration or dose not given beside the values; settings: for protection against anoxia / survival (in words): sulfate
Experimental: Adult Swiss mice (BK-1 males, 20 g) purchased from Bantin & Kingman, Fremont, Calif. were used. Each batch consisted of 10 mice. Within each batch five mice were selected randomly as experimental animals and the remaining five as controls. Experimental mice received daily intraperitoneal injections of 0.25 ml of GES (50 mg/ml) for 14 days.
At day 14, all mice within the same batch (5 experimental and 5 each of the […]) were placed in a specially designed chamber (26.5×24.5×21.0 cm). Anoxia/hypoxia was produced by infusion of pure nitrogen gas ([…]) into the chamber for 2.5 or 2.75 minutes. Anoxia/hypoxia was reversed immediately after these intervals by removing the chamber and placing the mice in a room air environment.
The results are shown in FIG. 1 and discussed in detail above.

[4] = parameters: species or system Adult Swiss mice; settings: mouse, in vivo
Experimental: (§1) Adult Swiss mice (BK-1 male 20 g) purchased from Bantin & Kingman, Fremont, Calif., were used. Each batch consisted of 15 mice. Within each batch, five mice were selected randomly to be in the GES, taurine, or control group. A taurine group was included to serve as additional control.
Arterial blood gas sample was collected by puncture of the lower portion of the descending aorta under pentobarbital anesthesia. Analysis was performed on a Corning 168 Blood Gas Analyzer.

CA1 neurons = assay: neuronal density in CA1 region, gerbil forebrain ischemia model; format: in vivo
Experimental: The gerbil forebrain ischemia model of Kirino (REFERENCE, please) was employed as follows.
Animals were divided into 4 groups. Two groups of 5 animals each served as control.
First control group was administered daily for fourteen days 0.25 ml of saline. No ischemia was induced.
Second control group was administered 0.25 ml of 625 mg/kg of GES daily for fourteen days. No ischemia was induced.
Third group of ten animals was control ischemia group. This group was administered with 0.25 ml of saline daily for 14 days. Then, the ischemia was induced.
Fourth group of 16 animals was administered 0.25 ml of 625 mg/kg of GES for 14 days, followed by induced ischemia.
Animals were anesthetized with 1% halothane, 70% nitrous oxide, and 29% oxygen. The subscalp and rectal temperature were monitored and kept constant at 37° C. using a controlled heating system starting 30 minutes prior to one hour after induction of ischemia. Ischemia in experimental groups (saline and GES ischemia groups) was induced by occlusion of the carotid arteries bilaterally for 5 minutes using small aneurysm clips. Animals in the two control groups (saline and GES controls) received sham surgery but no ischemia was induced.
Seven days after induced ischemia and recirculation, animals were perfused transcardially with 50 cc of normal saline followed by 500 cc of 5% paraformaldehyde in 0.1M phosphate buffer (pH=7.3), at 100 cm H2 O, under deep pentobarbital anesthesia. Brains were removed and fixed in the same buffered paraformaldehyde solution for 14 days. Sections (6 μm thick) containing the dorsal hippocampus at the level 1.4-1.7 mm posterior to the bregma were prepared on a cryostat from paraffin embedded brain. Sections were stained with hematoxylin and eosin and examined in a double blinded fashion. The number of viable neurons within the CA1 region was counted using an Olympus BH-2 microscope at ×400. The results represents the average of the counts.

anaerobic glycolysis = assay: brain lactate after 2.5 min anoxia; format: in vivo, Adult Swiss mice
Experimental: as §1
Brain lactate levels were determined for mice exposed to 2.5 minutes of anoxia as follows. Animals were exposed to 2.5 minutes of anoxia under pentobarbital anesthesia. Immediately after the exposure, animals were immersed into a liquid nitrogen. The frozen brains were removed by chiseling and extracted as described above. Lactate concentration was determined using the lactate dehydrogenase reaction.

For `N=C(N)NCCS(=O)(=O)O` [GES, guanidinoethane sulfate], the “intracellular pH of gerbil brain” value (gerbil brain) is listed as 7.26 and 7.25±0.07 and 7.25, the “effect on taurine transport into the brain (in words)” value [1] is listed as “competitive inhibitor of taurine transport into the brain; also recorded: effectively competes with and inhibits taurine transport into the brain” and the “brain GES level relative to saline group” value [2] is listed as “about 7 times”. The “mortality, 2.5 minutes of anoxia” value ([3]; 14 days i.p. pretreatment) was “zero”, the “mortality, 2.75 minutes of anoxia” value ([3]; 14 days i.p. pretreatment) was 20% and the “protection against 2.5 minutes anoxia” value ([3]; FIG. 1) was 100%. The “protection against anoxia / survival (in words)” value ([3]; listed as sodium guanidinoethane sulfate) was “effectively prevent lactic acidosis caused by complete oxygen deficiency”, the “protection against anoxia / survival (in words)” value [3] was “more effective than pretreatment with taurine or saline; also recorded: enhance the survival rate of mice exposed to anoxia; also recorded: significantly enhances the survival rate of adult mice exposed to anoxia” and the “arterial blood gas parameters including pH (in words)” value [4] was “remained essentially unchanged”. For the same compound, the “arterial pCO2” value [4] was 41.0 ± 5.49 mmHg, the “arterial pH” value [4] was 7.29 ± 0.03 and the “arterial pO2” value [4] was 98.0 ± 5.8 mmHg. The “neuroprotection of CA1 neurons (in words)” value (CA1 neurons; 7 days after 5 min bilateral carotid occlusion, sulfate) was “significant nueroprotection on CA1 neurons; also recorded: Significantly higher neuronal density”, the neuronal density in CA1 region, no ischemia (CA1 neurons; GES control group (n=5), sham surgery) was 249 ± 9.4 /mm and the “CA1 neuronal density, ischemia” value (CA1 neurons; GES ischemia group) was 61.1±55.11 /mm. The neuronal density in CA1 region, ischemia (CA1 neurons; GES ischemia group (n=16), 5 min occlusion, 7 days, p<0.05) was 61.1 ± 55.1 /mm, the “protective activity by CA1 neuronal density vs saline ischemia” value (CA1 neurons; in vivo) was “four times higher” and the Lactate (anaerobic glycolysis; Table 4, n = 5, post 2.5 min anoxia) was 0.50 ± 0.07 mM. The “lactate levels post 2.5 min anoxia (in words)” value (anaerobic glycolysis; among three groups) was “essentially identical among the three groups”.
